Values of other authors as cited in US10711094B2, “Conjugated polymer nanoparticles, methods of using, and methods of making” (KING ABDULLAH UNIVERSITY OF SCIENCE AND TECHNOLOGY, priority 2015, dated 2020).

Details: in ethanol

- fluorescence quantum yield (Φfl) of reference dye: 96%
SMILES: O=C(O)c1ccccc1C1=c2cc3c4c(c2Oc2c1cc1c5c2CCCN5CCC1)CCC[N+]=4CCC3.[Cl-] [Rhodamine 101]
